Data published in PMC8041284, “Tunable Methacrylamides for Covalent Ligand Directed Release Chemistry” (Journal of the American Chemical Society, 2021).
Read-outs that look alike come from different tables or passages of the source. Where a SMILES comes first, the peptide text is derived from it. [ ]: non-standard residue; d: D form. pGlu = O=C1CC[C@@H](C(=O)O)N1; Thz = O=C(O)[C@@H]1CSCN1

Target: BTK (Homo sapiens, UniProt Q06187)
Experiment: biochemical
[1] = read-out: BTK inhibition (%), 0.75 uM BTK, […] probe 3l, 15 min preincubation

Chain of BTK (Q06187 402-655 limits assumed): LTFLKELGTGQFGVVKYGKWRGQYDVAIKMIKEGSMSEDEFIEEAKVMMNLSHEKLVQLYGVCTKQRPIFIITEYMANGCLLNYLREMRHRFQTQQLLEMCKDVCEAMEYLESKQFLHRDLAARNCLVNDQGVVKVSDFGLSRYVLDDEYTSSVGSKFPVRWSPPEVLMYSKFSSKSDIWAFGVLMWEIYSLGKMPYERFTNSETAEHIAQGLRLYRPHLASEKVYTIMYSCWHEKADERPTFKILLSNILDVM

Row | SMILES | inhibition at 10 µM [1] [%] | inhibition at 10 µM (read-out: BTK inhibition (%)) [%]
1 | COC(=O)N[C@H](C(=O)N[C@@H](Cc1ccccc1)[C@@H](O)CN(Cc1ccc(-c2ccccn2)cc1)NC(=O)[C@@H](NC(=O)OC)C(C)(C)C)C(C)(C)C [PCM-0095133] | -10.9 | –
2 | CCS(=O)(=O)N1CC(CC#N)(n2cc(-c3ncnc4[nH]ccc34)cn2)C1 [PCM-0095473] | -20 | –
3 | CC(C)N(CCC(C(N)=O)(c1ccccc1)c1ccccn1)C(C)C (centres unmarked) [PCM-0065027] | 5.4 | –
4 | COC(=O)CCC(=O)CN [PCM-0216554] | -7.7 | –
5 | C[C@]12C=CC(=O)C=C1CC[C@@H]1[C@@H]2CC[C@@]2(C)[C@H]1CC[C@]2(C)O [PCM-0215063] | – | -11.7
6 | COc1cc(C(=O)O)ccc1O [PCM-0216103] | 3.1 | –
7 | C[C@@H]1CC[C@]2(C(=O)O)CC[C@]3(C)C(=CC[C@@H]4[C@@]5(C)CC[C@H](O[C@@H]6OC[C@H](O)[C@H](O)[C@H]6O)C(C)(C)[C@@H]5CC[C@]43C)[C@@H]2[C@]1(C)O [PCM-0216436] | 14.7 | –
8 | NC(=O)c1cnc(NCCc2ccc(O)c(Cl)c2)nc1NCc1ccccc1 [PCM-0216041] | 47.1 | –
9 | C=C1[C@H]2CC[C@@H]3[C@H]2C(C)(C)CCC[C@]13C [PCM-0216219] | 4.6 | –
10 | Cn1cc(C2=C(c3cn(CCCSC(=N)N)c4ccccc34)C(=O)NC2=O)c2ccccc21 [PCM-0215237] | 117 | –
11 | Cc1ncc([N+](=O)[O-])n1CC(C)O (centres unmarked) [PCM-0086479] | -3.9 | –
12 | O=c1oc2cc(O)ccc2s1 [PCM-0090709] | -13.2 | –
13 | CNCC(O)c1ccc(O)cc1 (centres unmarked) [PCM-0065519] | 7 | –
14 | CC(C)(CO)[C@@H](O)C(=O)NCCC(=O)O [PCM-0214814] | 7 | –
15 | CS(=O)(=O)c1cccc(C[C@H](NC(=O)c2c(Cl)cc3c(c2Cl)CCN(C(=O)c2ccc4ccoc4c2)C3)C(=O)O)c1 [PCM-0214914] | -4.7 | –
16 | CC(C)c1ccc2c(c1O)CC[C@H]1C3=C(CC[C@]21C)C(=O)OC3 [PCM-0216350] | 0.8 | –
17 | CC(=O)OC/C=C/c1ccccc1 [PCM-0216207] | -14.7 | –
18 | O=C1CC[C@@H](C(=O)N2CSC[C@H]2C(=O)O)N1 [PCM-0090672] ([pGlu]-[Thz]-OH) | 11.7 | –
19 | CC(C)=CCC[C@@](C)(O)[C@H]1CC[C@]2(C)[C@@H]1[C@H](O)C[C@@H]1[C@@]3(C)CC[C@H](O)C(C)(C)[C@@H]3[C@@H](O[C@@H]3O[C@H](CO)[C@@H](O)[C@H](O)[C@H]3O)C[C@]12C [PCM-0216547] | 12.4 | –
20 | CCNC(=O)c1[nH]nc(-c2cc(Cl)c(O)cc2O)c1-c1ccc(OC)cc1 [PCM-0215298] | 21.6 | –
21 | CCOc1ccccc1O[C@H](c1ccccc1)[C@H]1CNCCO1 [PCM-0095634] | -7 | –
22 | CC(C)(O)CNc1nc(Nc2ccnc(C(F)(F)F)c2)nc(-c2cccc(C(F)(F)F)n2)n1 [PCM-0215637] | 19.3 | –
23 | CC[C@H](Nc1ncnc2nc[nH]c12)c1oc2ccccc2c(=O)c1-c1cccc(F)c1 [PCM-0216040] | 8.5 | –
24 | CCCC[S+]([O-])c1sc2nc(-c3cccs3)cc(-c3ccccc3)c2c1N (centres unmarked) [PCM-0215569] | 0.8 | –

Row | SMILES | inhibition at 10 µM [1] [%] | inhibition at 10 µM (read-out: BTK inhibition (%)) [%]
25 | O=C(Nc1ccc(S(=O)(=O)Nc2ccccc2Cl)c(Cl)c1)c1ccccn1 [PCM-0095621] | -21.6 | –
26 | COC(=O)C1=CO[C@@H](O[C@@H]2O[C@H](CO)[C@@H](O)[C@H](O)[C@H]2O)[C@H]2[C@@H]1C(=O)C[C@@H]2C [PCM-0216534] | 6.9 | –
27 | Cc1ccc(CN(CC(O)COc2cccc3[nH]ccc23)C(C)(C)C)cc1 (centres unmarked) [PCM-0216011] | 6.9 | –
28 | Cc1c(C(=O)Nc2ccc(N3C[C@@H](C)O[C@@H](C)C3)nc2)cccc1-c1ccc(OC(F)(F)F)cc1 [PCM-0095316] | 6.2 | –
29 | CCC(=O)O[C@@H]1CC(=O)O[C@H](C)C/C=C/C=C/[C@H](O)[C@H](C)C[C@H](CC=O)[C@H](O[C@@H]2O[C@H](C)[C@@H](O[C@H]3C[C@@](C)(O)[C@@H](OC(=O)CC)[C@H](C)O3)[C@H](N(C)C)[C@H]2O)[C@H]1OC [PCM-0216255] | 6.2 | –
30 | CC(=O)c1cc([N+](=O)[O-])c(Sc2ccc(F)cc2F)s1 [PCM-0215212] | 5.4 | –
31 | CN1CC(=O)N2[C@H](c3ccc4c(c3)OCO4)c3[nH]c4ccccc4c3C[C@@H]2C1=O [PCM-0214630] | -6.2 | –
32 | Cn1cc(-c2cc(Oc3cc(F)c(NC(=O)C4(C(=O)Nc5ccccc5)CC4)cc3F)ccn2)cn1 [PCM-0216116] | 88.8 | –
33 | O=C1NC(=O)[C@@H](c2cn3c4c(cccc24)CCC3)[C@@H]1c1c[nH]c2ccccc12 [PCM-0095697] | 29 | –
34 | OCC1(O)OC[C@@H](O)[C@H](O)[C@@H]1O (some centres unmarked) [PCM-0216581] | 6.9 | –
35 | Nc1nc2c(ncn2COC(CO)CO)c(=O)[nH]1 [PCM-0065253] | -3.9 | –
36 | CCCSc1nc(N[C@@H]2C[C@H]2c2ccc(F)c(F)c2)c2nnn([C@@H]3C[C@H](OCCO)[C@@H](O)[C@H]3O)c2n1 [PCM-0095628] | -34.2 | –
37 | COc1ccc(C[C@@H](C)NC[C@H](O)c2ccc(O)c(NC=O)c2)cc1 [PCM-0086341] | 7 | –
38 | CC(=O)N1CCN(c2ccc(OC[C@@H]3CO[C@@](Cn4ccnc4)(c4ccc(Cl)cc4Cl)O3)cc2)CC1 [PCM-0065423] | -29.8 | –
39 | O=C(Nc1ccccc1)c1cc([N+](=O)[O-])ccc1Cl [PCM-0065623] | 0.8 | –
40 | c1cc(-c2cnn3cc(-c4ccc(N5CCNCC5)cc4)cnc23)c2cccnc2c1 [PCM-0095784] | 3.9 | –
41 | CCC(=O)O[C@H]1CC[C@H]2[C@@H]3CC[C@H]4CC(=O)[C@H](C)C[C@]4(C)[C@H]3CC[C@]12C [PCM-0215061] | – | -14
42 | CCCN1CCO[C@@H]2c3cc(O)ccc3OC[C@H]21 [PCM-0095211] | -8.6 | –
43 | CN(C)CCCNC(=O)c1ccc(-c2cc(O)c3ncccc3c2)cc1 [PCM-0215418] | 19.3 | –
44 | COc1cc2oc(-c3ccccc3)cc(=O)c2c(OC)c1OC [PCM-0216616] | -34 | –
45 | O=c1cc(N2CCOCC2)oc2c(-c3ccc4c(c3)OCCO4)csc12 [PCM-0215845] | 23.4 | –
46 | CC(=O)Nc1cccc(-n2c(=O)n(C3CC3)c(=O)c3c(Nc4ccc(I)cc4F)n(C)c(=O)c(C)c32)c1 [PCM-0095350] | -10.3 | –
47 | CCCCNC(=O)NS(=O)(=O)c1ccc(C)cc1 [PCM-0064855] | -11.7 | –
48 | O=C(O)C1=CO[C@@H](O[C@@H]2O[C@H](CO)[C@@H](O)[C@H](O)[C@H]2O)[C@H]2[C@@H]1C=C[C@]2(O)CO [PCM-0216181] | -6.9 | –

Row | SMILES | inhibition at 10 µM [1] [%] | inhibition at 10 µM (read-out: BTK inhibition (%)) [%]
49 | O=c1cc(-c2ccc(O)c(O)c2)oc2c([C@@H]3O[C@H](CO)[C@@H](O)[C@H](O)[C@H]3O)c(O)cc(O)c12 [PCM-0216392] | -22.4 | –
50 | CC(C)c1c(C(=O)Nc2ccccc2)c(-c2ccccc2)c(-c2ccc(F)cc2)n1CC[C@@H](O)C[C@@H](O)CC(=O)O [PCM-0064680] | 10.1 | –
51 | CC(C)CN(C[C@@H](O)[C@H](Cc1ccccc1)NC(=O)O[C@H]1CCOC1)S(=O)(=O)c1ccc(N)cc1 [PCM-0214738] | -41.2 | –
52 | CC(=O)OCC1=C(C(=O)O)N2C(=O)[C@@H](NC(=O)CSC(=NC(C)C)NC(C)C)[C@H]2SC1 [PCM-0216063] | 4.7 | –
53 | COc1cc2c(cc1O)C[C@H]1c3cc(O)c(OC)cc3CC[N@@+]1(C)C2 [PCM-0216444] | -1.5 | –
54 | CCOC(=O)C1=C(COCCN)NC(C)=C(C(=O)OC)[C@@H]1c1ccccc1Cl [PCM-0214889] | -11.7 | –
55 | C[C@@H](Oc1ccc2[nH]nc(/C=C/c3cnn(CCO)c3)c2c1)c1c(Cl)cncc1Cl [PCM-0215376] | 101 | –
56 | C=C(C)[C@@H]1CC[C@]2(C(=O)O)CC[C@]3(C)[C@H](CC[C@@H]4[C@@]5(C)CC[C@H](OC(=O)CC(C)(C)C(=O)O)C(C)(C)[C@@H]5CC[C@]43C)[C@@H]12 [PCM-0216605] | 17.8 | –
57 | O=c1[nH]c(=O)c2ncn([C@@H]3O[C@H](CO)[C@@H](O)[C@H]3O)c2[nH]1 [PCM-0216292] | 13.1 | –
58 | CNS(=O)(=O)Nc1nccc(Cc2c(C)c3ccc(Oc4ncccn4)cc3oc2=O)c1F [PCM-0215552] | 17.9 | –
59 | CC/C(=C(/c1ccc(/C=C/C(=O)O)cc1)c1ccc2[nH]ncc2c1)c1ccc(F)cc1Cl [PCM-0216010] | 81.1 | –
60 | CNC(=O)c1c(F)cccc1Nc1nc(Nc2cc3c(cc2OC)CCN3C(=O)CN(C)C)nc2[nH]ccc12 [PCM-0095412] | 13.8 | –
61 | COc1ccc(-c2cnc3c(-c4cccc5ncccc45)cnn3c2)cc1 [PCM-0215297] | -2.3 | –
62 | Cc1ccc([C@@H]2O[C@H](CO)[C@@H](O)[C@H](O)[C@H]2O)cc1Cc1ccc(-c2ccc(F)cc2)s1 [PCM-0095519] | 7.6 | –
63 | N#Cc1ccc(Oc2ccc3c(c2)COB3O)cc1 [PCM-0215118] | 8.5 | –
64 | Cc1ncc(NC(=O)c2cccc(C(F)(F)F)c2)cc1-c1cnc(OC2CCOCC2)c(N2CCOCC2)c1 [PCM-0216049] | -13.1 | –
65 | Cc1ccc2c(c1)[C@]13CCCC[C@@H]1[C@H](C2)N(C)CC3 [PCM-0216574] | – | 12.8
66 | C[N+](C)(C)CC(O)CC(=O)O (centres unmarked) [PCM-0090641] | -11.7 | –
67 | CCOC(CN1CCN(CC(C)C(=O)c2ccccc2)CC1)c1ccccc1 (centres unmarked) [PCM-0215205] | -6.8 | –
68 | O=c1cc(-c2ccc(O)cc2)oc2c([C@@H]3OC[C@H](O)[C@H](O)[C@H]3O)c(O)c([C@@H]3O[C@H](CO)[C@@H](O)[C@H](O)[C@H]3O)c(O)c12 [PCM-0216486] | -13.9 | –
69 | CC1(C)CC[C@]2(C(=O)O)CCC3=C(CC[C@@H]4[C@@]5(C)C[C@H](O)[C@H](O)[C@@](C)(C(=O)O)[C@@H]5CC[C@@]34C)[C@@H]2C1 [PCM-0216490] | 10.8 | –
70 | OC(CNc1ccccc1)Cn1c2ccc(Br)cc2c2cc(Br)ccc21 (centres unmarked) [PCM-0215533] | 44.8 | –
71 | CC(=O)O[C@@]12CO[C@@H]1C[C@H](O)[C@@]1(C)C(=O)[C@H](O)C3=C(C)[C@@H](O)C[C@@](O)([C@@H](OC(=O)c4ccccc4)[C@H]21)C3(C)C [PCM-0095302] | 9.3 | –
